Like-named read-outs stand apart in the source and are kept apart here.
Assays:
HBE cells = test: Inhibition of cell proliferation, CCK8 method; assay type: cell-based, human; conditions: for IC50: HBE normal bronchial epithelial cells, 48 h, CCK8, read-out: Inhibitory activity (IC50) against HBE
Method: (§1) The stock solution was diluted with the corresponding culture medium to the required concentration just before the experiment.
(§2) HBE cells and BEAS-2B cells are normal lung bronchial epithelial cell lines, and both cells were cultured in DMEM high glucose medium (supplemented with 10% fetal bovine serum and 1% double antibody) to the logarithmic growth phase; H460 cells, A549 cells, H1975 cells and HCC827 cells are lung cancer cell lines, and all of them were cultured in RPMI1640 medium (supplemented with 10% fetal bovine serum and 1% double antibody) to the logarithmic growth phase. Among them, H1975 cells and HCC827 cells are EGFR mutant cells.
(§3) The cells were counted, and then seeded in a 96-well plate at a density of 5000 cells/well, 100 μl for each well. The culture plate was moved into a CO2 incubator and incubated for 24 h at 37° C. and 5% CO2. Compounds at different concentrations were added to each well, 5 replicate wells for each concentration, and the cells were treated with the compounds for 48 hours. CCK8 detection reagent was added to each well according to the operation manual, and then the plate was further incubated for 1 h before terminating the culture. 450 nm wavelength was chosen, and the absorbance value of each well was adjusted on the microplate ELISA analyzer. The result was recorded. […] was taken as the horizontal axis, and absorbance as the vertical axis to plot a curve. The half inhibitory concentration (IC50) was calculated by Bliss method. Each experiment was repeated at least 3 times.
(§4) Normal lung cell lines and different lung cancer cell lines were selected for experiments.

H1975 cells = test: Inhibition of cell proliferation, CCK8 method; assay type: cell-based, human; conditions: 48 h, read-out: Inhibitory activity (IC50) against H1975
Method: as §1, §2, §3, §4

HCC827 cells = test: Inhibition of cell proliferation, CCK8 method; assay type: cell-based, human; conditions: for selectivity for HCC827 cells (in words): EGFR mutant HCC827 cells versus other cell lines; for IC50: HCC827 EGFR mutant cells, 48 h, CCK8, read-out: Inhibitory activity (IC50) against HCC827
Method: as §1, §2, §3, §4

BEAS-2B cells = test: Inhibition of cell proliferation, CCK8 method; assay type: cell-based, human; conditions: BEAS-2B normal bronchial epithelial cells, 48 h, read-out: Inhibitory activity (IC50) against BEAS-2B
Method: (§5) Compounds 1-9 of the present invention were respectively weighed and dissolved in 1 ml of dimethyl sulfoxide (DMSO), to prepare a 10 mM drug solution, which was stored in a refrigerator at −20° C. in the dark after packaging. The stock solution was diluted with the corresponding culture medium to the required concentration just before the experiment.
as §2
as §3, with “When the cells were cultured to 90% of the growth density, the cells were digested with 0.25% trypsin to prepare a single cell suspension. The cells” for “The cells”
(§6) Normal lung cell lines and different lung cancer cell lines were selected for experiments. Amongst, the compound with high anti-cancer activity was screened, whose anti-tumor activity was further studied.

H460 cells = test: Inhibition of cell proliferation, CCK8 method; assay type: cell-based, human; conditions: 48 h, read-out: Inhibitory activity (IC50) against H460
Method: as §5, §2
as §3, with “When the cells were cultured to 90% of the growth density, the cells were digested with 0.25% trypsin to prepare a single cell suspension. The cells” for “The cells”
as §6

A549 cells = test: Inhibition of cell proliferation, CCK8 method; assay type: cell-based, human; conditions: A549 lung adenocarcinoma cells, 48 h, read-out: Inhibitory activity (IC50) against A549
Method: as §5, §2
as §3, with “When the cells were cultured to 90% of the growth density, the cells were digested with 0.25% trypsin to prepare a single cell suspension. The cells” for “The cells”
as §6

[1] = molecular target: T1, EGFR (T790M, C797S, L858R) (Homo sapiens, UniProt P00533, C797S/L858R/T790M); test: Kinase inhibition, Lantha Screen assay; assay type: biochemical; conditions: for Single-concentration inhibitory activity against EGFR (T790M, C7975, L858R), Mean (100% inhibition): compound concentration 2 nM; for IC50: read-out: Inhibitory activity (IC50) on EGFR (T790M, C797S, L858R)
T1 construct: purchased BPS 40351
Method: According to relevant literature, the inhibitory activity of five kinases (EGFR, EGFR-LT, EGFR-LTC, BTK, JAK3) were tested. Note: EGFR, EGFR-LT, EGFR-LTC: wild-type EGFR, L858R/T790M (EGFR-LT), or L858R/T790M/C797S (EGFR-LTC) mutant protein. […]
1) The initial detection concentration of the compound is 10 μM, and the compound was prepared into a 100-fold concentration, namely 1000 μM. 95 μl of 100% DMSO was added to the first well of a 96-well plate, and then 10 μl of 10 mM compound solution was added to prepare a 1000 μM compound solution. 50 μl of […] compound solution prepared above was transferred to a 384-well Echo plate;
2) 50 μl of 100% DMSO was transferred to two empty wells as a control without compound and enzyme;
3) Echo 550 was used to transfer 100 nl of compound solution to a 384-well test plate. 2.3 Kinase reaction and termination
1) EGFR (T790M, C797S, L858R) was added to 1× kinase buffer to form 2× kinase solution;
2) 5 μl of the above 2× kinase solution was transferred to a 384-well reaction plate, and 1× kinase buffer was added to the negative control well, then incubated for 10 min at room temperature;
3) Fluorescein-PolyGT and ATP were added to 1× kinase buffer to form a 2× substrate solution;
4) 5 μl of the above 2× substrate solution was transferred to a 384-well reaction plate;
5) The 384-well reaction plate was incubated at room temperature for 30 min;
6) 2× mixed solution of antibody and EDTA was prepared, of which […] was added to the 384-well reaction plate to stop the reaction;
7) The plate was left at room temperature for 60 min.
Percent inhibition=(max−Lantha signal)/(max−min)*100
“min” is the reading of the control well without enzyme; “max” is the reading of DMSO control well. 3) The data were imported into MS Excel, and IC50 results were subjected to curve fitting by using XLFit excel add-in version 5.4.0.8:
Fitting formula: Y=Bottom+(Top−Bottom)/(1+(IC50/X)^HillSlope)

[2] = test system: normal cells and different lung cancer cell lines; test: Inhibition of cell proliferation, CCK8 method, comparison in words over the whole cell panel; assay type: cell-based, human; conditions: BEAS-2B, HBE, H460, A549, H1975, HCC827; CCK8, 48 h
Method: as §5, §2
as §3, with “When the cells were cultured to 90% of the growth density, the cells were digested with 0.25% trypsin to prepare a single cell suspension. The cells” for “The cells”
as §6

[3] = Homo sapiens, NCI-H1975, H1975 EGFR mutant cells
[4] = Homo sapiens, NCI-H460, H460 large cell lung cancer cells

T1 sequence (P00533 25-1210 T790M/C797S/L858R): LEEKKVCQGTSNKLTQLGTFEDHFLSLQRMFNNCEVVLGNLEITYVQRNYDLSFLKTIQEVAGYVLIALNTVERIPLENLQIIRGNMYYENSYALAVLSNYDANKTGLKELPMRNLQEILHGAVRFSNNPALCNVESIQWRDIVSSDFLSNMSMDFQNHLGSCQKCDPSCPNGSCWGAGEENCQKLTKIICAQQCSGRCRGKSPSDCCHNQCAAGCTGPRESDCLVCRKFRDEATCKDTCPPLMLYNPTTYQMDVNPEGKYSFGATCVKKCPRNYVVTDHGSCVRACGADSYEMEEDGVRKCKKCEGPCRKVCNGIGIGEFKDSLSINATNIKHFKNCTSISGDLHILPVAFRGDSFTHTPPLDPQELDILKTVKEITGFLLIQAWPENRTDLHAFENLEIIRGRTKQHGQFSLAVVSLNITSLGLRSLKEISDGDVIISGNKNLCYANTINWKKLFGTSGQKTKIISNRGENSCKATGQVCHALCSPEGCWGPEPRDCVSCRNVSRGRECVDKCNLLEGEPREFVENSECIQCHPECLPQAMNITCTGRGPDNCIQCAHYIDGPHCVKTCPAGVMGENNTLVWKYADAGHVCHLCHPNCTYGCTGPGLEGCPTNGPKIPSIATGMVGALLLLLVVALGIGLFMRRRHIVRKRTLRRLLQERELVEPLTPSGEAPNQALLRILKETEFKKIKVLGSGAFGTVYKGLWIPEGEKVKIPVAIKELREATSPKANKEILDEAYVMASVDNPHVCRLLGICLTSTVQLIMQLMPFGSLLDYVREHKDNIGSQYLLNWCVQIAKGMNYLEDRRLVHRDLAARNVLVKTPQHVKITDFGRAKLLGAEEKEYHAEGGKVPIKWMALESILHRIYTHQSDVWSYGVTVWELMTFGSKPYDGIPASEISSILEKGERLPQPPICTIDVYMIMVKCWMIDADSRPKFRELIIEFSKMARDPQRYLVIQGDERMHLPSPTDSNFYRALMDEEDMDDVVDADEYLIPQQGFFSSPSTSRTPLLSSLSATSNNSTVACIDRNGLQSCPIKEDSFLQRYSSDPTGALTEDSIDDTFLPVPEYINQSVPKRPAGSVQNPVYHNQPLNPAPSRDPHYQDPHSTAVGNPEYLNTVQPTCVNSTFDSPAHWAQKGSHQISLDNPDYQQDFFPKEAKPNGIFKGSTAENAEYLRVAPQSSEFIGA

| SMILES | IC50 (H1975 cells; [3]) | IC50 (HCC827 cells; Homo sapiens) | IC50 (H460 cells; [4]) | IC50 (A549 cells; Homo sapiens) | Single-concentration inhibitory activity against EGFR (T790M, C7975, L858R), Mean (100% inhibition) [1] | IC50 [1] | IC50 (H1975 cells; H1975 EGFR mutant cells) | IC50 (HCC827 cells) | IC50 (H460 cells; H460 large cell lung cancer cells) | IC50 (A549 cells) | IC50 (HBE cells; Homo sapiens) | selectivity for HCC827 cells (in words) (HCC827 cells) | IC50 (BEAS-2B cells; Homo sapiens) | inhibitory activity on HCC827 cells (in words) (HCC827 cells; CCK8, 48 h) | inhibitory effect on different cell lines (in words) [2] | toxicity to normal epithelial cells HBE cells (in words) (HBE cells; compared with positive control commercially available Avtinib) | selectivity coefficient (HCC827 cells; IC50 values against HBE cells compared with HCC827 cells) | IC50 (HBE cells) | IC50 (BEAS-2B cells) |
| --- | --- | --- | --- | --- | --- | --- | --- | --- | --- | --- | --- | --- | --- | --- | --- | --- | --- | --- | --- |
| C=CC(=O)Nc1cccc(Oc2nc(Nc3ccc(N4CCN(C)CC4)c([N+](=O)[O-])c3)nc3[nH]ccc23)c1 [Compound 5] | 3.1 µM | 0.1 µM | 8.02 µM | 2.9 µM | 5.8 % inhibition | 2.22 µM |  |  |  |  | 7.54 µM |  | 3.68 µM |  |  |  |  |  |  |
| C=CC(=O)Nc1cccc(Oc2nc(Nc3ccc(N4CCN(C)CC4)c([N+](=O)[O-])c3)nc3c2ccn3COC(=O)C(C)(C)C)c1 [Compound 7] | 4.12 µM | 0.44 µM | 4.68 µM | 3.1 µM | 8.4 % inhibition |  |  |  |  |  | 3.61 µM |  | 5.73 µM |  |  |  |  |  |  |
| C=CC(=O)Nc1cccc(Oc2nc(Nc3ccc(N4CCN(C)CC4)c(N)c3)nc3c2ccn3COC(=O)C(C)(C)C)c1 [Compound 8] | 42 µM | 0.33 µM | 7.65 µM | 10.8 µM | 3.6 % inhibition |  |  |  |  |  | 9.58 µM |  | 9.54 µM | certain inhibitory effect | relatively poor inhibitory effects on other cell lines |  |  |  |  |
| C=CC(=O)Nc1cccc(Oc2nc(Nc3ccc(N4CCN(C)CC4)c(I)c3)nc3c2ccn3COC(=O)C(C)(C)C)c1 [Compound 9] | 52.3 µM | 51.7 µM | 25.1 µM | 9.63 µM | 2.1 % inhibition |  |  |  |  |  | 7.5 µM |  | 29.1 µM |  | poorer than that of other compounds |  |  |  |  |

Further lines, with some results ahead:

| IC50 (H1975 cells; [3]) | IC50 (HCC827 cells; Homo sapiens) | IC50 (H460 cells; [4]) | IC50 (A549 cells; Homo sapiens) | Single-concentration inhibitory activity against EGFR (T790M, C7975, L858R), Mean (100% inhibition) [1] | IC50 [1] | IC50 (H1975 cells; H1975 EGFR mutant cells) | IC50 (HCC827 cells) | IC50 (H460 cells; H460 large cell lung cancer cells) | IC50 (A549 cells) | SMILES | IC50 (HBE cells; Homo sapiens) | selectivity for HCC827 cells (in words) (HCC827 cells) | IC50 (BEAS-2B cells; Homo sapiens) | inhibitory activity on HCC827 cells (in words) (HCC827 cells; CCK8, 48 h) | inhibitory effect on different cell lines (in words) [2] | toxicity to normal epithelial cells HBE cells (in words) (HBE cells; compared with positive control commercially available Avtinib) | selectivity coefficient (HCC827 cells; IC50 values against HBE cells compared with HCC827 cells) | IC50 (HBE cells) | IC50 (BEAS-2B cells) |
| --- | --- | --- | --- | --- | --- | --- | --- | --- | --- | --- | --- | --- | --- | --- | --- | --- | --- | --- | --- |
| 22.4 µM | 0.26 µM | 33.6 µM | 20.6 µM | 7.8 % inhibition | 1.41 µM |  |  |  |  | C=CC(=O)Nc1cccc(Oc2nc(Nc3ccc(N4CCN(C)CC4)c(OC)c3)nc3[nH]ccc23)c1 [Compound 4] | 12.5 µM | high targeting selectivity | 9.89 µM |  |  |  |  |  |  |
| 3.84 µM | 0.046 µM | 26.7 µM | 6.06 µM | 8.0 % inhibition | 0.464 µM |  |  |  |  | C=CC(=O)Nc1cccc(Oc2nc(Nc3ccc(N4CCN(C)CC4)c(N)c3)nc3[nH]ccc23)c1 [Compound 6] | 22.7 µM | high targeting selectivity | 7.8 µM |  |  | less toxic | exceeds 490 times |  |  |
|  |  |  |  | 9.2 % inhibition |  | 1.67 µM | 0.12 µM | 4.86 µM | 1.68 µM | C=CC(=O)Nc1cccc(Oc2nc(Nc3ccc(N4CCN(C)CC4)c(Cl)c3)nc3[nH]ccc23)c1 [Compound 2] |  |  |  |  | basically the same as that of the positive control |  |  | 8.73 µM | 3.8 µM |

From patent US20230075765A1, “PYRROLO[2,3-D]PYRIMIDINE DERIVATIVE TARGETING EGFR MUTATION, AS WELL AS THE PREPARATIVE METHOD AND THE USE THEREOF” (WEST CHINA HOSPITAL, SICHUAN UNIVERSITY, priority 2020, published 2023)
